The values below come from US20120309823A1, “PERCUTANEOUS ABSORPTION PREPARATIONS” (priority 1999, published 2012).

In general, melting point refers to the temperature, or range, at which the solid turns liquid. `CC(=O)NCC[C@@H]1CCc2ccc3c(c21)CCO3`: the melting point was 118 to 120 °C.
